From patent publication US20250057970A1, “TROP2 TARGETING ANTIBODY-DRUG CONJUGATE, AND PREPARATION METHOD AND USE THEREFOR” (priority 2020, published 2025)
Like-named read-outs stand apart in the source and are kept apart here.

System: NCI-N87 cell line
Assay: Killing activity on NCI-N87 before and after cathepsin B digestion
Format: cell-based, human
Settings: NCI-N87, 144 hours, read-out: IC50 (based on SN-38 equivalent)
Procedure: NCI-N87 cell line was selected as the experimental cell lines. After the sample was incubated in cathepsin B system (100 mM sodium acetate-acetic acid buffer, 4 mM dithiothreitol, pH 5.0) at 37° C. for 4 hours, the obtained sample was diluted with culture medium to different concentrations. 8 concentrations (1.5 to 10-fold dilution) were set from 70 nM to 0.003 nM of SN-38 concentration. […] The IC50 value was calculated by reading the […] data after chemical luminescent staining with CellTiter-Glo® Luminescent Cell Viability Assay.

CCc1c2c(nc3ccc(O)cc13)-c1cc3c(c(=O)n1C2)COC(=O)[C@]3(O)CC [SN-38, 7-ethyl-10-hydroxycamptothecin, reference compound]
IC50 (After Enzyme Digestion (cathepsin B, pH 5.0, 37° C., 4 hours)): 7.43 nM | IC50 (Before Enzyme Digestion): 7.18 nM
